Tests used:
[1] = cited from earlier work; for Ksp: silver salt, pure water at 25° C. (Table 1); for Ksp In pure H2O at 25° C. / Ksp in pure H2O at 25° C.: CRC Handbook of Chemistry and Physics; for Ksp In pure H2O at 25° C.: 74th edition (Table 4); for Ksp in pure H2O at 25° C.: 74th edition (Table 8)
[2] = Solubility-product constant (Ksp) and molar solubility of metal salts in pure water at 25° C.; settings: derived from Ksp (Table 1)

[Cl][Ag] [AgCl, silver chloride]
Ksp [1]: 1.77 × 10^−10

[Ag][I] [Agl, silver iodide]
Ksp [1]: 8.51 × 10^−17 | Molar solubility, silver [2]: 9.22 nM

[Br][Ag] [Silver bromide]
Ksp In pure H2O at 25° C. [1]: 5.35 × 10^−13

O=S(=O)([O-])[O-].[Ag+].[Ag+] [Silver sulfate]
Ksp In pure H2O at 25° C. [1]: 1.20 × 10^−5 | Ksp [1]: 1.20 × 10^−5

[O]=[Zn] [Zinc oxide]
Ksp in pure H2O at 25° C. [1]: 3.87 × 10^−10

Copper sulfide
Ksp in pure H2O at 25° C. [1]: 6.00 × 10^−37
